Laboratory results reported in ChEMBL document CHEMBL1137357, “Further synthetic and biological studies on vitamin D hormone antagonists based on C24-alkylation and C2alpha-functionalization of 25-dehydro-1alpha-hydroxyvitamin D(3)-26,23-lactones” (J Med Chem, 2006).

Target: T1, Vitamin D3 receptor (Homo sapiens) (UniProt P11473)
T1 sequence (whole entry): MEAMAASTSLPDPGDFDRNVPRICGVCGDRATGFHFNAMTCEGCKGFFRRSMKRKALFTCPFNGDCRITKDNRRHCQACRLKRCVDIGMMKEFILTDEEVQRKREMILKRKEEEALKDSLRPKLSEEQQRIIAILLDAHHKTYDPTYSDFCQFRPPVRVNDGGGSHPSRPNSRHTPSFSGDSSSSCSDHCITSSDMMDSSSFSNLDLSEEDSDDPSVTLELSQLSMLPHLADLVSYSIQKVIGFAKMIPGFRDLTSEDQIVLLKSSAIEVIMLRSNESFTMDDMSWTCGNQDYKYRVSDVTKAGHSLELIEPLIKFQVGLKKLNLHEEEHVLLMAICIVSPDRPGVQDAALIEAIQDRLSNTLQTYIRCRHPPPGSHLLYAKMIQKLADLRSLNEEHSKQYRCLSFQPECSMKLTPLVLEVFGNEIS
Experiment: Antagonist activity against 1-alpha,25-dihydroxy vitamin D3-induced HL60 cell differentiation by NBT reduction method relative to TEI-9647
Assay type: functional, cell-based
Parameters: scale not given: the % may be the effect or the level left
Conditions: HL-60

C=C1/C(=C\C=C2/CCC[C@]3(C)[C@@H]([C@H](C)C[C@H]4OC(=O)C(=C)[C@@H]4CCC)CC[C@@H]23)C[C@@H](O)[C@H](CCCO)[C@@H]1O
Activity: 573%

C=C1/C(=C\C=C2/CCC[C@]3(C)[C@@H]([C@H](C)C[C@H]4OC(=O)C(=C)[C@@H]4CC)CC[C@@H]23)C[C@@H](O)C[C@@H]1O
Activity: 6%

C=C1C(=O)O[C@@H](C[C@@H](C)[C@H]2CC[C@H]3/C(=C/C=C4/C[C@@H](O)C[C@H](O)C4=C)CCC[C@]23C)[C@@H]1CC
Activity: 70%

C=C1/C(=C\C=C2/CCC[C@]3(C)[C@@H]([C@H](C)C[C@H]4OC(=O)C(=C)[C@H]4CC)CC[C@@H]23)C[C@@H](O)[C@H](OCCCO)[C@@H]1O
Activity: 27%

C=C1/C(=C\C=C2/CCC[C@]3(C)[C@@H]([C@H](C)C[C@H]4OC(=O)C(=C)[C@@H]4C)CC[C@@H]23)C[C@@H](O)C[C@@H]1O
Activity: 7%

C=C1/C(=C\C=C2/CCC[C@]3(C)[C@@H]([C@H](C)C[C@H]4OC(=O)C(=C)[C@@H]4CC(C)C)CC[C@@H]23)C[C@@H](O)C[C@@H]1O
Activity: 5%

C=C1/C(=C\C=C2/CCC[C@]3(C)[C@@H]([C@H](C)C[C@H]4OC(=O)C(=C)[C@@H]4CCC)CC[C@@H]23)C[C@@H](O)C[C@@H]1O
Activity: 8%

C=C1/C(=C\C=C2/CCC[C@]3(C)[C@@H]([C@H](C)C[C@H]4OC(=O)C(=C)[C@@H]4CC(C)C)CC[C@@H]23)C[C@@H](O)[C@H](OCCCO)[C@@H]1O
Activity: 42%

C=C1/C(=C\C=C2/CCC[C@]3(C)[C@@H]([C@H](C)C[C@@H]4OC(=O)C(=C)[C@@H]4CC)CC[C@@H]23)C[C@@H](O)[C@H](C)[C@@H]1O
Activity: 1290%

C=C1C(=O)O[C@H](C[C@@H](C)[C@H]2CC[C@H]3/C(=C/C=C4/C[C@@H](O)C[C@H](O)C4=C)CCC[C@]23C)[C@@H]1C
Activity: 18%

C=C1C[C@H](C[C@@H](C)[C@H]2CC[C@H]3/C(=C/C=C4/C[C@@H](O)[C@H](C)[C@H](O)C4=C)CCC[C@]23C)OC1=O
Activity: 1020%

C=C1/C(=C\C=C2/CCC[C@]3(C)[C@@H]([C@H](C)C[C@@H]4OC(=O)C(=C)[C@H]4CC(C)C)CC[C@@H]23)C[C@@H](O)[C@H](CCCO)[C@@H]1O
Activity: 388%

C=C1/C(=C\C=C2/CCC[C@]3(C)[C@@H]([C@H](C)C[C@@H]4OC(=O)C(=C)[C@@H]4CC(C)C)CC[C@@H]23)C[C@@H](O)[C@H](C)[C@@H]1O
Activity: 1220%

C=C1/C(=C\C=C2/CCC[C@]3(C)[C@@H]([C@H](C)C[C@@H]4OC(=O)C(=C)[C@H]4CCCC)CC[C@@H]23)C[C@@H](O)[C@H](C)[C@@H]1O
Activity: 216%

C=C1C(=O)O[C@H](C[C@@H](C)[C@H]2CC[C@H]3/C(=C/C=C4/C[C@@H](O)[C@H](C)[C@H](O)C4=C)CCC[C@]23C)[C@@H]1C
Activity: 476%

C=C1/C(=C\C=C2/CCC[C@]3(C)[C@@H]([C@H](C)C[C@@H]4OC(=O)C(=C)[C@@H]4C)CC[C@@H]23)C[C@@H](O)[C@H](OCCCO)[C@@H]1O
Activity: 1970%

C=C1/C(=C\C=C2/CCC[C@]3(C)[C@@H]([C@H](C)C[C@H]4OC(=O)C(=C)[C@H]4CCC)CC[C@@H]23)C[C@@H](O)[C@H](OCCCO)[C@@H]1O
Activity: 97%

C=C1/C(=C\C=C2/CCC[C@]3(C)[C@@H]([C@H](C)C[C@@H]4OC(=O)C(=C)[C@H]4CCCC)CC[C@@H]23)C[C@@H](O)[C@H](OCCCO)[C@@H]1O
Activity: 205%

C=C1C(=O)O[C@@H](C[C@@H](C)[C@H]2CC[C@H]3/C(=C/C=C4/C[C@@H](O)[C@H](OCCCO)[C@H](O)C4=C)CCC[C@]23C)[C@@H]1C
Activity: 1740%

C=C1/C(=C\C=C2/CCC[C@]3(C)[C@@H]([C@H](C)C[C@@H]4OC(=O)C(=C)[C@H]4CCC)CC[C@@H]23)C[C@@H](O)[C@H](C)[C@@H]1O
Activity: 2030%

C=C1C(=O)O[C@H](C[C@@H](C)[C@H]2CC[C@H]3/C(=C/C=C4/C[C@@H](O)[C@H](OCCCO)[C@H](O)C4=C)CCC[C@]23C)[C@@H]1C
Activity: 41%

C=C1/C(=C\C=C2/CCC[C@]3(C)[C@@H]([C@H](C)C[C@@H]4OC(=O)C(=C)[C@H]4CCC)CC[C@@H]23)C[C@@H](O)[C@H](CCCO)[C@@H]1O
Activity: 913%

C=C1/C(=C\C=C2/CCC[C@]3(C)[C@@H]([C@H](C)C[C@@H]4OC(=O)C(=C)[C@@H]4CCC)CC[C@@H]23)C[C@@H](O)[C@H](OCCCO)[C@@H]1O
Activity: 85100%

C=C1/C(=C\C=C2/CCC[C@]3(C)[C@@H]([C@H](C)C[C@H]4OC(=O)C(=C)[C@@H]4CCC)CC[C@@H]23)C[C@@H](O)[C@H](C)[C@@H]1O
Activity: 12%

C=C1/C(=C\C=C2/CCC[C@]3(C)[C@@H]([C@H](C)C[C@@H]4OC(=O)C(=C)C4(C)C)CC[C@@H]23)C[C@@H](O)C[C@@H]1O
Activity: 1170%

C=C1/C(=C\C=C2/CCC[C@]3(C)[C@@H]([C@H](C)C[C@H]4OC(=O)C(=C)[C@H]4CC(C)C)CC[C@@H]23)C[C@@H](O)[C@H](C)[C@@H]1O
Activity: 50%

C=C1/C(=C\C=C2/CCC[C@]3(C)[C@@H]([C@H](C)C[C@@H]4OC(=O)C(=C)[C@H]4CC(C)C)CC[C@@H]23)C[C@@H](O)[C@H](C)[C@@H]1O
Activity: 229%

C=C1C(=O)O[C@H](C[C@@H](C)[C@H]2CC[C@H]3/C(=C/C=C4/C[C@@H](O)C[C@H](O)C4=C)CCC[C@]23C)[C@@H]1CCCC
Activity: 17%

C=C1/C(=C\C=C2/CCC[C@]3(C)[C@@H]([C@H](C)C[C@@H]4OC(=O)C(=C)[C@@H]4CCC)CC[C@@H]23)C[C@@H](O)[C@H](C)[C@@H]1O
Activity: 1540%

C=C1/C(=C\C=C2/CCC[C@]3(C)[C@@H]([C@H](C)C[C@H]4OC(=O)C(=C)[C@@H]4CC)CC[C@@H]23)C[C@@H](O)[C@H](CCCO)[C@@H]1O
Activity: 37%

C=C1/C(=C\C=C2/CCC[C@]3(C)[C@@H]([C@H](C)C[C@@H]4OC(=O)C(=C)[C@@H]4CCCC)CC[C@@H]23)C[C@@H](O)[C@H](CCCO)[C@@H]1O
Activity: 1160%

C=C1/C(=C\C=C2/CCC[C@]3(C)[C@@H]([C@H](C)C[C@@H]4OC(=O)C(=C)[C@H]4CC)CC[C@@H]23)C[C@@H](O)[C@H](C)[C@@H]1O
Activity: 248%

C=C1/C(=C\C=C2/CCC[C@]3(C)[C@@H]([C@H](C)C[C@@H]4OC(=O)C(=C)[C@@H]4CC(C)C)CC[C@@H]23)C[C@@H](O)[C@H](CCCO)[C@@H]1O
Activity: 989%

C=C1/C(=C\C=C2/CCC[C@]3(C)[C@@H]([C@H](C)C[C@H]4OC(=O)C(=C)[C@@H]4CCCC)CC[C@@H]23)C[C@@H](O)[C@H](OCCCO)[C@@H]1O
Activity: 88%

C=C1C(=O)O[C@H](C[C@@H](C)[C@H]2CC[C@H]3/C(=C/C=C4/C[C@@H](O)C[C@H](O)C4=C)CCC[C@]23C)[C@@H]1CC
Activity: 13%

C=C1C(=O)O[C@@H](C[C@@H](C)[C@H]2CC[C@H]3/C(=C/C=C4/C[C@@H](O)[C@H](CCCO)[C@H](O)C4=C)CCC[C@]23C)[C@@H]1C
Activity: 1510%

C=C1/C(=C\C=C2/CCC[C@]3(C)[C@@H]([C@H](C)C[C@H]4OC(=O)C(=C)[C@@H]4C)CC[C@@H]23)C[C@@H](O)[C@H](OCCCO)[C@@H]1O
Activity: 12%

C=C1/C(=C\C=C2/CCC[C@]3(C)[C@@H]([C@H](C)C[C@H]4OC(=O)C(=C)[C@@H]4CC(C)C)CC[C@@H]23)C[C@@H](O)[C@H](CCCO)[C@@H]1O
Activity: 32%

C=C1/C(=C\C=C2/CCC[C@]3(C)[C@@H]([C@H](C)C[C@@H]4OC(=O)C(=C)[C@H]4CCC)CC[C@@H]23)C[C@@H](O)[C@H](OCCCO)[C@@H]1O
Activity: 12100%
